# Reference: EPA's ToxRefDB 2
# Columns and labels:
# mouse [1] = conditions: Carcinogenicity, cd1, Oral, Feed, dose end: 78 week, group: systemic
# rabbit [2] = conditions: Prenatal developmental toxicity study, other, Oral, Gavage/Intubation, dose end: 27 GD
# rat [3] = conditions: Multigenerational reproductive toxicity study, sprague dawley, Oral, Feed, dose end: 2 generation
# rat [4] = conditions: Combined chronic toxicity/carcinogenicity, sprague dawley, Oral, Feed, dose end: 104 week, group: systemic
# dog [5] = conditions: Chronic toxicity; beagle; Oral; Capsule; dose end: 12 month; group: systemic; systemic / clinical chemistry / alkaline phosphatase (alp/alk) / alkaline phosphatase (alp/alk) + systemic / organ weight / liver / absolute…
# rat [6] = conditions: Subchronic oral toxicity in rodents, sprague dawley, Feed, dose end: 90 day, group: systemic, systemic / in life observation / body weight / body weight gain + systemic / in life observation / food consumption / food consumption + …
# mouse [7] = conditions: Subchronic oral toxicity in rodents, cd1, Feed, dose end: 90 day, group: systemic
# rat [8] = conditions: Multigenerational reproductive toxicity study, sprague dawley, Oral, Feed, dose end: 2 generation; remark: listed apart in the source
# mouse [9] = conditions: Subchronic oral toxicity in rodents, cd1, Feed, dose end: 13 week, group: systemic
# rat [10] = conditions: Combined chronic toxicity/carcinogenicity, sprague dawley, Oral, Feed, dose end: 104 week, group: systemic; remark: listed apart in the source
# rat [11] = conditions: Subchronic oral toxicity in rodents, sprague dawley, Feed, dose end: 13 week, group: systemic, systemic / clinical chemistry / globulins / globulins + systemic / clinical chemistry / protein / protein + systemic / organ weight / liver…
# rabbit [12] = conditions: Prenatal developmental toxicity study, other, Oral, Gavage/Intubation, dose end: 18 GD
# dog [13] = conditions: Subchronic oral toxicity in nonrodent, beagle, Feed, dose end: 13 week, group: systemic
# dog [14] = conditions: Chronic toxicity, beagle, Oral, Feed, dose end: 52 week, group: systemic
# mouse [15] = conditions: Subchronic oral toxicity in rodents, cd1, Feed, dose end: 90 day, group: systemic; remark: listed apart in the source
# rat [16] = conditions: Subchronic oral toxicity in rodents, sprague dawley, Feed, dose end: 90 day, group: systemic
# mouse [17] = conditions: Carcinogenicity; cd1; Oral; Feed; dose end: 80 week; group: systemic; systemic / in life observation / body weight / body weight + systemic / in life observation / body weight / body weight gain + systemic / …
# rat [18] = conditions: Combined chronic toxicity/carcinogenicity, sprague dawley, Oral, Feed, dose end: 2 year, group: systemic
# rat [19] = conditions: Multigenerational reproductive toxicity study, sprague dawley, Oral, Feed, dose end: 2 generation; remark: listed apart in the source
# [20] = systemic / in life observation / body weight / body weight + systemic / in life observation / body weight / body weight gain + systemic / in…
# [21] = group: developmental, systemic / in life observation / body weight / fetal weight
# [22] = group: maternal, reproductive / reproductive performance / aborted / aborted + reproductive / reproductive performance / premature delivery / premature …
# [23] = group: offspring, systemic / in life observation / body weight / offspring (pup) weight + systemic / in life observation / body weight / offspring (pup) …
# [24] = group: parental, systemic / in life observation / body weight / body weight + systemic / in life observation / body weight / body weight gain + systemic / in…
# [25] = systemic / in life observation / body weight / body weight + systemic / in life observation / body weight / body weight gain + systemic / …
# [26] = systemic / pathology microscopic / mammary gland / adenoacanthoma
# [27] = systemic / clinical chemistry / triglycerides / triglycerides
# [28] = group: offspring, developmental / offspring survival late / viability index / viability index + systemic / in life observation / body weight / offspring (pup…
# [29] = group: parental, systemic / organ weight / adrenal gland / relative to body weight + systemic / organ weight / adrenal gland / relative to brain weight
# [30] = group: parental, systemic / organ weight / adrenal gland / relative to body weight + systemic / organ weight / adrenal gland / relative to brain weight + …
# [31] = systemic / clinical chemistry / alkaline phosphatase (alp/alk) / alkaline phosphatase (alp/alk) + systemic / organ weight / liver / absolute…
# [32] = systemic / in life observation / clinical signs / tooth-malocclusion
# [33] = group: developmental, developmental / developmental malformation / bone / full supernumerary
# [34] = group: maternal, systemic / in life observation / body weight / body weight gain + systemic / in life observation / food consumption / food consumption + …
# [35] = systemic / clinical chemistry / triglycerides / triglycerides + systemic / in life observation / clinical signs / mucoid stools + systemic…
# [36] = systemic / in life observation / clinical signs / vomiting
# [37] = systemic / in life observation / food consumption / food consumption
# [38] = systemic / organ weight / kidney / absolute + systemic / organ weight / kidney / relative to brain weight
# [39] = systemic / organ weight / kidney / absolute + systemic / organ weight / kidney / relative to brain weight + systemic / pathology microscopic…
# [40] = group: offspring, systemic / in life observation / body weight / offspring (pup) weight
smiles,measurement,setting,value
FC(F)(F)c1ccc(OCCCOc2c(Cl)cc(OCC=C(Cl)Cl)cc2Cl)nc1 [Pyridalyl],LEL,mouse [1]; systemic / hematology / mean corpuscular (cell) volume (mcv) / mean corpuscular (cell) volume (mcv),5.04 mg/kg/day
same,NEL,mouse [1]; systemic / hematology / mean corpuscular (cell) volume (mcv) / mean corpuscular (cell) volume (mcv) + systemic / hematology / lymphocyte / …,1.57 mg/kg/day
same,LOAEL,mouse [1]; [20],99 mg/kg/day
same,NOAEL,mouse [1]; [20],4.78 mg/kg/day
same,LEL,rabbit [2]; [21],150 mg/kg/day
same,LOAEL,rabbit [2]; [21],150 mg/kg/day
same,NEL,rabbit [2]; [21],50 mg/kg/day
same,NOAEL,rabbit [2]; [21],50 mg/kg/day
same,LEL,rabbit [2]; [22],150 mg/kg/day
same,LOAEL,rabbit [2]; [22],150 mg/kg/day
same,NEL,rabbit [2]; [22],50 mg/kg/day
same,NOAEL,rabbit [2]; [22],50 mg/kg/day
same,LOAEL,rat [3]; [23],83.7 mg/kg/day
same,NEL,rat [3]; [23],3.4 mg/kg/day
same,NOAEL,rat [3]; [23],17 mg/kg/day
same,LEL,"rat [3]; group: offspring, systemic / organ weight / thymus / nos",17 mg/kg/day
same,LOAEL,rat [3]; [24],68.7 mg/kg/day
same,NOAEL,rat [3]; [24],13.8 mg/kg/day
same,LEL,"rat [3]; group: parental, systemic / organ weight / testes / absolute",17 mg/kg/day
same,NEL,"rat [3]; group: parental, systemic / organ weight / testes / absolute + systemic / in life observation / body weight / body weight + systemic / in life observation / …",3.4 mg/kg/day
same,LOAEL,rat [4]; [20],17.1 mg/kg/day
same,NOAEL,rat [4]; [25],3.4 mg/kg/day
same,LEL,rat [4]; [26],1.23 mg/kg/day
same,NEL,rat [4]; [26],< 1.23 mg/kg/day
same,LEL,dog [5],80 mg/kg/day
same,LOAEL,dog [5],> 80 mg/kg/day
same,NEL,dog [5],20 mg/kg/day
same,NOAEL,dog [5],≥ 80 mg/kg/day
same,LEL,rat [6],56 mg/kg/day
same,LOAEL,rat [6],56 mg/kg/day
same,NEL,rat [6],5.56 mg/kg/day
same,NOAEL,rat [6],5.56 mg/kg/day
same,LEL,mouse [7]; [27],9.5 mg/kg/day
same,NEL,mouse [7]; [27],< 9.5 mg/kg/day
same,LOAEL,mouse [7]; [25],378 mg/kg/day
same,NOAEL,mouse [7]; [25],81.7 mg/kg/day
CCOc1cc(C(C)(C)C)ccc1C1COC(c2c(F)cccc2F)=N1 (stereo unspecified) [Etoxazole],LOAEL,"rat [8]; group: offspring, developmental / offspring survival late / viability index / viability index",157 mg/kg/day
same,LEL,rat [8]; [28],157 mg/kg/day
same,NEL,rat [8]; [28],31.6 mg/kg/day
same,NOAEL,rat [8]; [28],31.6 mg/kg/day
same,NEL,rat [8]; [29],33.4 mg/kg/day
same,NOAEL,rat [8]; [29],33.4 mg/kg/day
same,LEL,rat [8]; [30],139 mg/kg/day
same,LOAEL,rat [8]; [30],139 mg/kg/day
same,LOAEL,mouse [9]; [31],878 mg/kg/day
same,NEL,mouse [9]; [31],55.1 mg/kg/day
same,NOAEL,mouse [9]; [31],214 mg/kg/day
same,LEL,mouse [9]; systemic / organ weight / liver / absolute + systemic / organ weight / liver / relative to body weight + systemic / pathology microscopic / …,214 mg/kg/day
same,LOAEL,rat [10]; systemic / in life observation / clinical signs / tooth nos,187 mg/kg/day
same,NOAEL,rat [10]; systemic / in life observation / clinical signs / tooth nos + systemic / hematology / blood clotting / blood clotting - activated partial …,1.83 mg/kg/day
same,LEL,rat [10]; [32],2.07 mg/kg/day
same,NEL,rat [10]; [32],< 2.07 mg/kg/day
same,LEL,rat [11],300 mg/kg/day
same,LOAEL,rat [11],300 mg/kg/day
same,NEL,rat [11],< 300 mg/kg/day
same,NOAEL,rat [11],< 300 mg/kg/day
same,LEL,rabbit [12]; [33],1000 mg/kg/day
same,LOAEL,rabbit [12]; [33],1000 mg/kg/day
same,NEL,rabbit [12]; [33],200 mg/kg/day
same,NOAEL,rabbit [12]; [33],200 mg/kg/day
same,LEL,rabbit [12]; [34],1000 mg/kg/day
same,LOAEL,rabbit [12]; [34],1000 mg/kg/day
same,NEL,rabbit [12]; [34],200 mg/kg/day
same,NOAEL,rabbit [12]; [34],200 mg/kg/day
same,LOAEL,dog [13]; [35],53.7 mg/kg/day
same,NOAEL,dog [13]; [35],5.33 mg/kg/day
same,LEL,dog [13]; [36],5.33 mg/kg/day
same,NEL,dog [13]; [36],< 5.33 mg/kg/day
"CCCOC(=O)c1ccc(C(=O)OCCC)nc1 [Dipropyl pyridine-2,5-dicarboxylate]",LOAEL,dog [14]; systemic / in life observation / body weight / body weight gain,148 mg/kg/day
same,NOAEL,dog [14]; systemic / in life observation / body weight / body weight gain + systemic / in life observation / body weight / body weight + systemic / in…,34.3 mg/kg/day
same,LEL,dog [14]; [37],8.12 mg/kg/day
same,NEL,dog [14]; [37],< 8.12 mg/kg/day
same,LOAEL,mouse [15]; [20],2000 mg/kg/day
same,NOAEL,mouse [15]; [20],1000 mg/kg/day
same,LEL,mouse [15]; systemic / organ weight / kidney / absolute + systemic / organ weight / kidney / relative to body weight,500 mg/kg/day
same,NEL,mouse [15]; systemic / organ weight / kidney / relative to body weight + systemic / organ weight / liver / relative to body weight,250 mg/kg/day
same,LEL,rat [16]; systemic / hematology / hematocrit (hct) / hematocrit (hct),500 mg/kg/day
same,LOAEL,rat [16]; [25],1000 mg/kg/day
same,NEL,rat [16]; [25],250 mg/kg/day
same,NOAEL,rat [16]; [25],500 mg/kg/day
same,LEL,mouse [17],494 mg/kg/day
same,LOAEL,mouse [17],494 mg/kg/day
same,NEL,mouse [17],124 mg/kg/day
same,NOAEL,mouse [17],124 mg/kg/day
same,LEL,rat [18]; [38],250 mg/kg/day
same,LOAEL,rat [18]; [38],250 mg/kg/day
same,NEL,rat [18]; [39],65 mg/kg/day
same,NOAEL,rat [18]; [39],65 mg/kg/day
same,LEL,rat [19]; [40],289 mg/kg/day
same,LOAEL,rat [19]; [40],289 mg/kg/day
same,NEL,rat [19]; [23],72.9 mg/kg/day
same,NOAEL,rat [19]; [23],72.9 mg/kg/day
same,LOAEL,rat [19]; [24],1020 mg/kg/day
same,NEL,rat [19]; [24],66 mg/kg/day
same,NOAEL,rat [19]; [24],255 mg/kg/day
same,LEL,"rat [19]; group: parental, systemic / in life observation / food consumption / food consumption",255 mg/kg/day
